Experimental data reported in BindingDB's records for doi:10.7270/Q2668BKB (The Scripps Research Institute Molecular Screening Center, 2009).

Molecular target: T1, 2'-phosphotransferase (Candida albicans (strain SC5314 / ATCC MYA-2876), UniProt Q5A7N4)
T1 sequence (Q5A7N4 whole entry): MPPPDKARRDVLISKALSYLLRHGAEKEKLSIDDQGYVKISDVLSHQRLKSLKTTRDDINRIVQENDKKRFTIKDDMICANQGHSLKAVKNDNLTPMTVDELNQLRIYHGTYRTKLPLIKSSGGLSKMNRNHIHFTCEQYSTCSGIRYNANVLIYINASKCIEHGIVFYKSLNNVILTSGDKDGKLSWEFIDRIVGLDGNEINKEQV
Assay: inhibition of Candida TPT1 enzyme activity – biochemical, fluorescence polarization, dose response (AID 2160)

- IC50: > 55.7 µM
SMILES: Cc1ccc2nc(N=NCc3ccc([N+](=O)[O-])o3)nc(-c3ccccc3)c2c1
